Assay results taken from paper PMC12073725, “Luminal Sweet Sensing and Enteric Nervous System Participate in Regulation of Intestinal Glucose Transporter, GLUT2” (Nutrients, 2025).

Target: T1, pig T1R2–T1R3 (Sus scrofa, UniProt I1ZBR6+Q0EF93)
T1 construct: gene TAS1R2; heterodimer; full-length, custom-synthesised genes in modified pcDNA3/TO; N-terminal rat sst3 tags, C-terminal FLAG or HSV tags; HEK293PEAKrapid cells stably expressing Galpha15
T1 sequence (I1ZBR6 20-835): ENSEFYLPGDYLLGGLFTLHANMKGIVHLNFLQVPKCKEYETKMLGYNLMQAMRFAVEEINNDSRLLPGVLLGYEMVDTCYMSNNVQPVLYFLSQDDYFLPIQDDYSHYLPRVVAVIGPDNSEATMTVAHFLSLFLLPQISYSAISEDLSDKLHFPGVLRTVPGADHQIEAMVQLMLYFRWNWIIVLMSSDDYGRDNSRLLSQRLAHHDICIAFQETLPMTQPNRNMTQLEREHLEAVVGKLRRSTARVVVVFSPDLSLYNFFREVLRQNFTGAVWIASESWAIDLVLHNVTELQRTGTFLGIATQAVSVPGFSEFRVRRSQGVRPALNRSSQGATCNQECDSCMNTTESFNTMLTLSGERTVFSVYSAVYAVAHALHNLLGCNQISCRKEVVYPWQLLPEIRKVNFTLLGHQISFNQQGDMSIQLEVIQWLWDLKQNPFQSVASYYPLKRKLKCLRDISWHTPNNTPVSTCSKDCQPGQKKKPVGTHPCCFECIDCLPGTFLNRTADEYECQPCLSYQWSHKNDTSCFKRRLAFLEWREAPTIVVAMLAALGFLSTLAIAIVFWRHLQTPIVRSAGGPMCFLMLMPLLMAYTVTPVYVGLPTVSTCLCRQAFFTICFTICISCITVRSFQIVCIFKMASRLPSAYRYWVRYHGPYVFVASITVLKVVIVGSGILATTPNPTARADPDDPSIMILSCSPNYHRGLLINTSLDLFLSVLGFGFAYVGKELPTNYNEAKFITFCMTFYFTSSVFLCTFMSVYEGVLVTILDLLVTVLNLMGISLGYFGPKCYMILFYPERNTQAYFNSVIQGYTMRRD
T1 sequence (Q0EF93 19-855): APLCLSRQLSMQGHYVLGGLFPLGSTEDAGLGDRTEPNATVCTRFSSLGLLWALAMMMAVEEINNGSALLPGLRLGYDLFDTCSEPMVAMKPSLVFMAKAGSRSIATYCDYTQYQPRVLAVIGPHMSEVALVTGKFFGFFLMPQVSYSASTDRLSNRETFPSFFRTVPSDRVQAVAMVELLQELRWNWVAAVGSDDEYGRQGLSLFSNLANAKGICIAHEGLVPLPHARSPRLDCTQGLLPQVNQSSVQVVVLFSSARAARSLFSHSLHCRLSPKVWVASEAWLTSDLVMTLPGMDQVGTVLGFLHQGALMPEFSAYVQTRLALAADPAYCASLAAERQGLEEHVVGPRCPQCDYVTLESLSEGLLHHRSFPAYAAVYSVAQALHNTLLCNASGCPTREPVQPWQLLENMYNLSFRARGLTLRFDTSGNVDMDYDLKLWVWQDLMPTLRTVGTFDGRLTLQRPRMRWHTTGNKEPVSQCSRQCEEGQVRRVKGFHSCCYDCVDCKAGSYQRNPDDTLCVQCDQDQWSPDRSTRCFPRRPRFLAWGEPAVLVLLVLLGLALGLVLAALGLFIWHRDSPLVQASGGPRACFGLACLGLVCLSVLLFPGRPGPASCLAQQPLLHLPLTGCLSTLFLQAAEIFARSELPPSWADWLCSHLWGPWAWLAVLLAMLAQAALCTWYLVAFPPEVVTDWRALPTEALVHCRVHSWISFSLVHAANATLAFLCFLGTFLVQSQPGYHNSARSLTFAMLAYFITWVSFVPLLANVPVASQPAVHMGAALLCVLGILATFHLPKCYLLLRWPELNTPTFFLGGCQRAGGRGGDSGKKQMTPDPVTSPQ
Experiment: calcium mobilisation (Fluo-4), FlexStation3
Format: cell-based
Conditions: agonist; transfected HEK293PEAKrapid Galpha15 cells; mock-transfected control; curves in mg/mL

Q: With `COc1cc(C=O)ccc1O` [vanillin] as the compound, how does the EC50 read?
A: activation in response to stimulation with either each sweetener component of SMF (A)
